Experimental data published in patent US20050222182A1, “Stabilized pharmaceutical compositions of halofuginone and other quinazolinone derivatives” (priority 2002, published 2005).
Read-outs that look alike come from different tables or passages of the source.

Key:
[1] = type: physicochemical; conditions: for Ea (degradation activation energy): 1 mg/ml
Protocol: Halofuginone HBr powder was dissolved in acetonitrile and the solution was mixed with 4 volumes ([…]) of borate buffer to yield a […] solution. Buffer solutions at pH 5.5, 6.5, and 7.5 were prepared by mixing various amounts of sodium borate solution (12 g in 240 ml DDW) to boric acid solution (12 g in 240 ml DDW). The solutions were filtered through a 0.2 micron filter into a tightly closed glass vial coated with aluminum foil to protect from light. The solutions (1.25 ml, 1 mg/ml in acetonitrile: buffer 1:4) were kept in temperature controlled incubators at 4, 25, 37 and 60° C. At time of analysis, about 50 μl of the solution was taken and immediately injected to the HPLC.
Halofuginone was determined by HPLC using the following equipment and conditions: • Instrument: HP 1050 with HPCHEM software • Column: C8, Lichospher 60 (5, μm) LichoCART 125-4, Cat. No. 1.50213 (Merck) (similar to Hypersil BDS C8 used by AminoLab) with precolumn Lichospher 100 RP-8, 5 μm, 4×4 mm, Cat. No. 1.50961 (Merck) • Column temp: ambient • Flow rate: isocratic, 1 ml/min Eluant: Acetonitrile: 0.1 M sodium citrate buffer pH3.0 at a 30:70 v/v • Detector: UV 254 nm • Sample volume: 20 μl • Run time: 15 min., halofuginone Rt=8.8 min.; degradation product Rt=11.7 Results:
Analysis: Halofuginone was analyzed by HPLC with UV detector. The retention times for halofuginone and its main degradation product (cis isomer) are 8.8 min and 11.7 min, respectively.
Stability: Halofuginone concentrations were followed for 24 hours. […] The decrease in halofuginone concentrations for the solutions kept at 25° C. and above is shown in FIG. 1 and the rate constants are summarized in Table 1. The degradation activation energies at different pH solutions were estimated from the plot of ln(Kobs) vs. 1/T and are summarized in Table 1. The activation energies were calculated from the slopes of ln(Kobs) vs. 1/T. The activation energies are in the range of 6.57-13.13 Kcal.

[2] = type: physicochemical
Source text: A commercially useful solution formulation was developed based on halofuginone dissolved in lactate buffer and the stability data shown in FIGS. 2 and 3. The stability of halofuginone in sodium lactate buffer (4% pH 4) was unaffected by the presence of saline in the final solution.

physchem = type: physicochemical; conditions: aqueous buffer, thermodynamic from solid
Protocol: The solubility of halofuginone in several solvents was first studied. Powder of halofuginone was dissolved in the different solvents, starting from over saturation and followed by dilutions.

| SMILES | Ea (degradation activation energy) ([1]; pH 5.5) [kcal] | Ea (degradation activation energy) ([1]; pH 6.5) [kcal] | Ea (degradation activation energy) ([1]; pH 7.5) [kcal] | Slope [ln(Kobs)/1/T] ([1]; pH 5.5) | Activation energies (range over pH solutions) ([1]; pH 5.5-7.5) | Slope [ln(Kobs)/1/T] ([1]; pH 6.5) | Slope [ln(Kobs)/1/T] ([1]; pH 7.5) | Stability in lactate buffer pH 4.0 compared to distilled water [2] | solubility (physchem) [µg/mL] |
| --- | --- | --- | --- | --- | --- | --- | --- | --- | --- |
| O=C(C[C@@H]1NCCC[C@H]1O)Cn1cnc2cc(Br)c(Cl)cc2c1=O (racemic) [halofuginone, 7-bromo-6-chloro-3-[3-(3-hydroxy-2-piperidinyl)-2-oxopropyl]-4(3H)-quinazolinone] | 13.13 | 8.38 | 6.57 | 26,134 | 6.57-13.13 Kcal | 16,685 | 13,412 | higher stability | – |
| O=C(CC1NCCCC1O)Cn1cnc2cc(Br)c(Cl)cc2c1=O (stereo not drawn) [halofuginone-Hbr] | – | – | – | – | – | – | – | – | ≥ 5000 |
